Assay results published in article PMC9369442, “Synthetic Peucedanocoumarin IV Prevents α-Synuclein Neurotoxicity in an Animal Model of Parkinson’s Disease” (International Journal of Molecular Sciences, 2022).

Assays:
[1] = tested on: SH-SY5Y cells with Tet-Off conditional expression of β23; assay: Trypan blue exclusion cell viability assay, Tet-Off β23 expression; type: cell-based; conditions: for effect on β23-induced cytotoxicity: 1 μM, 24 h; for EC50: Homo sapiens, Tet-Off β23, trypan blue exclusion, read-out: median effective concentration, cytoprotection against β23 toxicity; for cytotoxicity of the compound at high concentrations: up to 4 µM
Method: Figure 1 Peucedanocoumarin IV (PCiv) inhibits β23 aggregations and cytotoxicity in SH-SY5Y cells. (A) Scheme showing the detailed experimental steps in the organic synthesis of racemic PCiv and racemic PCiii (rac-PCiii, and rac-PCiv). Both PCiii and PCiv used in this study are racemic forms. (B) Trypan blue exclusion cell viability assessment in SH-SY5Y cells with Tet-Off-induced β23 expressions. β23 was expressed for 24 h using the Tet-off system. Further expression of β23 was halted by doxycycline (Dox) treatment with simultaneous treatment of the PCiii, PCiv, or their synthetic intermediate, trans-khellatone (t-khellatone, 1 μM 24 h). Cell viability was assessed 24 h after doxycycline treatment (n = 5 per group). (C) Synthetic PCiv’s protective effect on Tet-Off-expressed β23 toxicity in SH-SY5Y cells compared with peucedanocoumarin III (PCiii) determined by trypan blue exclusion assay. (D) The degradation of β23 monitored by Western blot at 37 h after doxycycline (200 ng/mL) treatment. The representative Western blot image of HA (β23) in SH-SY5Y cells treated with synthetic PCiii, synthetic PCiv (1 μM, 37 h), or DMSO as a vehicle. (E) Quantification of HA (β23) expression in SH-SY5Y cells from the indicated experimental groups in panel D (n = 3 experiments per group). (F) Representative immunofluorescence of steady state HA (β23) expression in SH-SY5Y cells expressing Tet-Off regulatable reporter mCherry and HA-tagged β23. HA-β23 was expressed for 24 h using the Tet-off system. Further expression of β23 was halted by Dox treatment in the presence of PCiii or PCiv (1 μM, 37 h). (G) Quantification of HA (β23) immunofluorescence signal in mCherry positive SH-SY5Y cells in each experimental group (n = 32 cells from three separate experiments per group). The data are expressed as means ± SEMs. * p < 0.05, ** p < 0.01, *** p < 0.001, and **** p < 0.0001, ANOVA test followed by Tukey’s post hoc analysis. Two-way ANOVA was used in panel C.
Human neuroblastoma SH-SY5Y cells (ATCC, Manassas, VA, USA) were grown in complete media containing DMEMs, 10% fetal bovine serum (vol/vol), and antibiotics (penicillin-streptomycin 100 U/mL, Thermo Fisher Scientific, Waltham, MA, USA). The atmospheric condition used to preserve the cells consisted of 5% CO2/95% air at 37 °C and maintained a humidified environment. X-tremeGENE HP transfection reagents (Roche, Basel, Switzerland) were used for transient transfection of DNA constructs (pCMV-tTA, TetP-β23, and pTet-dual2 [5]) following the manufacturer’s instructions.
SH-SY5Y cells were plated in 12-well plates at a density of 0.2 × 10^6 cells per well. Following transient transfection with the indicated constructs and subsequent treatment protocol, the cells were harvested by trypsinization, thereby yielding single-cell suspensions. The cells were washed twice with phosphate-buffered saline (PBS) and resuspended in serum-free DMEM. The resuspended cells were mixed with an equal volume of 0.4% trypan blue (w/v) and incubated for 2 min at room temperature. Live and dead cells were counted using a Countess II Automated Cell Counter (Life Technologies, Carlsbad, CA, USA) for assessing cell viability.

[2] = tested on: α-synuclein PFF-treated mice cortical neurons; assay: PFF-induced α-synucleinopathy in primary cortical neurons, immunofluorescence; type: cell-based, mouse; conditions: for endogenous α-synuclein expression: PBS- or PFF-treated mouse cortical neurons
Method: (§1) Figure 2 PCiv prevents α-synuclein aggregation in vitro and in cultured neurons with PFF treatment. (A) Representative Western blots showing the degree of recombinant α-synuclein (αSyn) aggregation in a test tube in the presence or absence of PCiv (100 μM) at the indicated incubation duration (phosphate-buffered saline [PBS], 37 °C for 3 or 5 days). Aggregation of α-synuclein was determined using α-synuclein antibody. (B) Quantification of the relative amount of α-synuclein aggregate in high molecular weight sizes in panel A (n = 3 per group). (C) Representative immunofluorescence of MAP2 and Lewy-like inclusion marker pS129-αSyn in mice cortical neurons treated with α-synuclein preformed fibril (PFF) (1 μg, for 14 days). To evaluate the protective effects of PCiv as compared with PCiii, these compounds were treated (1 μM every 2 days for 14 days) following the PFF treatment. (D) Quantification of pS129-αSyn immunofluorescence signal intensities in MAP2-positive cortical neurons in each experimental group (n = 15 cells from three separate experiments). (E) Cell viability assessment in the indicated experimental groups was monitored by CCK-8 assay (n = 3 per group). The data are expressed as means ± SEMs. * p < 0.05, ** p < 0.01, *** p < 0.001, and **** p < 0.0001, ANOVA test followed by Tukey’s post hoc analysis.
CD1 mice were purchased from Orient Co. for use in the mouse primary neuron culture. E14 embryos from CD1 mice were dissected for primary cortical neurons in Neurobasal A medium (Gibco, Thermo Fisher Scientific Inc., Waltham, MA, USA) supplemented with B-27 (Gibco, Thermo Fisher Scientific Inc., Waltham, MA, USA) and 1 mM L-glutamine. Next, the primary cortical neurons were maintained in a poly L-lysine-coated tissue culture plate, and the medium was changed every 2–3 days. After 7 days, PFF was added to the cortical neurons and incubated for 14 days to observe the p-S129-α-synuclein signal which was used for immunofluorescence analysis. […] The optical value was read at 450 nm using a multi-detection microplate reader (Synergy, BioTek Instruments Inc., Winooski, VT, USA). […]
(A) Representative Western blots showing the degree of recombinant α-synuclein (αSyn) aggregation in a test tube in the presence or absence of t-Khellatone, PCiii, and PCiv (100 μM) at 0 and 5 days of incubation (phosphate-buffered saline [PBS], 37 °C for 5 days). Aggregation of α-synuclein was determined using α- synuclein antibody. (B) Quantification of relative amount of α-synuclein aggregate in high molecular weight sizes in panel A (n = 3 per group). […] (D) Quantification of filament conformation-αSyn (Filament) immunofluorescence signal intensities in MAP2 -positive cortical neurons in each experimental group (n = 15 cells from three separate experiments). […]

[3] = tested on: α-synuclein PFF-treated mice cortical neurons; assay: PFF-induced neurotoxicity in cortical neurons, CCK-8 assay; type: cell-based, mouse; conditions: CCK-8, 14 days PFF, 1 μM every 2 days
Method: as §1, with “To evaluate the protective effects of PCiv as compared with PCiii, these compounds were treated (1 μM every 2 days for 14 days) following the PFF treatment.” left out
CD1 mice were purchased from Orient Co. for use in the mouse primary neuron culture. […] The optical value was read at 450 nm using a multi-detection microplate reader (Synergy, BioTek Instruments Inc., Winooski, VT, USA).

[4] = 1 μM every 2 days for 14 days, PFF 1 μg

Row | SMILES | effect on β23-induced cytotoxicity [1] | EC50 [1] | cytotoxicity of the compound at high concentrations [1] | endogenous α-synuclein expression [2] | PFF-induced neurotoxicity (neuron viability) [3] | PFF-induced elevation of filament conformation-αSyn signal [2, 4] | PFF-induced elevation of pS129-αSyn signal [2, 4]
1 | C/C=C(\C)C(=O)O[C@@H]1c2c(ccc3ccc(=O)oc23)OC(C)(C)[C@H]1OC(C)=O (relative stereo) [PCiii, peucedanocoumarin III] | potently prevented | 318 nM | no obvious cytotoxicity | not affected | prevented |  | 
2 | C/C=C(\C)C(=O)O[C@H]1[C@H](OC(C)=O)c2c(ccc3ccc(=O)oc23)OC1(C)C (relative stereo) [PCiv, trans-4′-acetyl-3′-tigloylkhellactone] | nearly equivalent cytoprotective biological function | 204 nM | no obvious cytotoxicity | not affected | prevented | mitigated | mitigated
